Results: patent US4002742A, “1-N-alkyl-4,6-di-(aminoglycosyl)-1,3-diaminocyclitols, methods for their manufacture, methods for their use as antibacterial agents, and compositions useful therefor” (priority 1974, dated 1977)
Values after ≈ are worked out from the molar mass of the structure shown.

Experiments:
Format in all cases: cell-based
Escherichia coli = experiment: in vitro minimal inhibitory concentration, standard tube dilution method in Mueller-Hinton broth
Source text: In Table 1, set forth below is shown the in vitro minimal inhibitory concentration (MIC) of gentamicin C2a against representative gram-positive gram-negative bacteria. The results are derived using the standard tube dilution method in Mueller-Hinton broth.
In Table 2, set forth below is shown the in vitro minimal inhibitory concentration (MIC) of gentamicin C2b against representative gram-positive and gram-negative bacteria. The results are derived using the standard tube dilution method in Mueller-Hinton broth.

bacteria = experiment: antibacterial activity and spectrum compared with the gentamicins
[1] = test system: gram positive bacteria and gram negative bacteria; experiment: antibacterial activity (standard dilution tests); details: versus parent antibiotic
Source text: (§1) Particularly useful compounds of our invention are those wherein X is a lower alkyl having up to 8 carbon atoms, particularly those having up to 4 carbon atoms, e.g. compounds of formulae I, II, III, IV, and V wherein X is methyl, ethyl, n-propyl or n-butyl.

[2] = test system: organisms resistant to the parent compound; experiment: activity against organisms resistant to the 1-N-unsubstituted parent compounds; details: organisms resistant to the 1-N-unsubstituted precursors
Source text: as §1

Row | SMILES | activity against resistant organisms [2] | other results
1 | CN[C@@H]1[C@@H](O)[C@@H](O[C@@H]2[C@@H](O)[C@H](O[C@H]3O[C@H]([C@H](C)N)CC[C@H]3N)[C@@H](N)C[C@H]2N)OC[C@]1(C)O [gentamicin C2a] | – | MIC (Escherichia coli): 17.5 µg/mL (≈ 37.8 µM); activity relative to the gentamicin C complex (bacteria; as the free base, of the activity of the gentamicin C complex): about 74%; antibacterial spectrum in vitro (bacteria; compared with gentamicin C1, C1a and C2): substantially the same antibacterial spectrum in vitro as do gentamicin C1, C1a, and C2
2 | CCN[C@@H]1C[C@H](N)[C@@H](O[C@H]2OC(CN)=CC[C@H]2N)[C@H](O)[C@H]1O[C@H]1OC[C@](C)(O)[C@H](NC)[C@H]1O [1-N-ethylsisomicin] | exhibit activity against gram negative organisms which are resistant to their 1-N-unsubstituted precursors | antibacterial activity compared to the parent antibiotics [1]: enhanced antibacterial activity
3 | CCN[C@@H]1C[C@H](N)[C@@H](O[C@H]2OC(C(C)N)=CC[C@H]2N)[C@H](O)[C@H]1O[C@H]1OC[C@](C)(O)[C@H](NC)[C@H]1O (stereo partly shown) [1-N-ethylverdamicin] | exhibit activity against gram negative organisms which are resistant to their 1-N-unsubstituted precursors | –
4 | CCCN[C@@H]1C[C@H](N)[C@@H](O[C@H]2OC(CN)=CC[C@H]2N)[C@H](O)[C@H]1O[C@H]1OC[C@](C)(O)[C@H](NC)[C@H]1O [1-N-(n-propyl) sisomicin, 1-N-(n-propyl)sisomicin] | exhibit activity against gram negative organisms which are resistant to their 1-N-unsubstituted precursors | –
5 | CCCN[C@@H]1C[C@H](N)[C@@H](O[C@H]2OC(C(C)N)=CC[C@H]2N)[C@H](O)[C@H]1O[C@H]1OC[C@](C)(O)[C@H](NC)[C@H]1O (stereo partly shown) [1-N-(n-propyl) verdamicin, 1-N-(n-propyl)verdamicin] | exhibit activity against gram negative organisms which are resistant to their 1-N-unsubstituted precursors | –
6 | CN[C@@H]1[C@@H](O)[C@@H](O[C@@H]2[C@@H](O)[C@H](O[C@H]3OC(CN)=CC[C@H]3N)[C@@H](N)C[C@H]2NCCCCN)OC[C@]1(C)O [1-N-(δ-aminobutyl) sisomicin, 1-N-(δ-aminobutyl)sisomicin] | exhibit activity against gram negative organisms which are resistant to their 1-N-unsubstituted precursors | –
7 | CN[C@@H]1[C@@H](O)[C@@H](O[C@@H]2[C@@H](O)[C@H](O[C@H]3OC(C(C)N)=CC[C@H]3N)[C@@H](N)C[C@H]2NCCCCN)OC[C@]1(C)O (stereo partly shown) [1-N-(δ-aminobutyl) verdamicin, 1-N-(δ-aminobutyl)veradamicin] | exhibit activity against gram negative organisms which are resistant to their 1-N-unsubstituted precursors | –
